# Test results as given in US9128100B2, “Non-invasive diagnostic method for the evaluation of intestinal lactase deficiency (hypolactasia)” (Venter Pharma, S.L., priority 2012, dated 2015).
# Values joined by “and” are separate entries in the source; they are usually repeats but may differ in a detail not shown here. Equal values may be shown once.
# How the values were obtained:
# [1] = target: T1, intestinal lactase (Homo sapiens, UniProt P09848); experiment: Urinary excretion of xylose after single oral doses of 4-GX in healthy volunteers; assay type: in vivo
# T1 construct: after its oral administration it is hydrolysed by the intestinal mucosa enzyme; from tissue; host or cells: small-intestinal mucosa (enterocyte brush border) of living human volunteers and patients, in vivo
# Experimental: Two groups of subjects were selected. […] Firstly, the lowest suitable oral dose of 4-GX administered to healthy volunteers was determined that enabled reliable detection (in terms of accuracy and reproducibility) of xylose levels in urine and blood via the analytical method to be used. In addition, the tolerance of these subjects to the various doses of 4-GX used in the test and the pharmacokinetics for each dose administered were analysed, both in urine and blood. The doses of 4-GX used were: 0.125 g, 0.250 g, 0.5 g, 1 g, 3 g and 6 g in addition to placebo in 12 healthy volunteers with washout period between doses of between three and seven days. It should be appreciated that the 4-GX doses can include small quantities of water which remain subsequent to the drying process of the 4-GX product. For example, the 4-GX product can contain about 8 wt % to about 12 wt %, most likely about 10 wt % water, based on the total weight of the product. […] In each study period, an ascending dose of 4-GX was administered and the serum and urine concentrations of xylose were measured at various times up to 8 hours following the administration of the drug.
# The main measured variable was the quantity of xylose in urine collected following oral administration of 4-GX at the following times: basal, 0-1 h, 1-2 h, 2-3 h, 3-4 h, 4-5 h, 5-6 h, 6-7 h and 7-8 h. […]
# [2] = target: T1, intestinal lactase; experiment: 4-GX test in 5-hour urine, patients with symptoms suggestive of lactose intolerance; assay type: in vivo
# Experimental: The diagnostic tests to which these patients were subjected were: • Intestinal biopsy: determining intestinal lactase activity therein. • Hydrogen breath test after the oral administration to patients of 50 g of lactose. While this test was being carried out, several capillary-blood glucose test (Glycemia tests) were carried out, calculating the highest increase observed in the blood glucose concentration compared to basal glucose level before starting the test. • 4-GX test in total urine at 0-4 and 0-5 hours, which was orally administered to patients 0.5 g of this product (or 0.45 g in a 4-GX sample including 10 wt % water), collecting the total urine accumulated over 0-4 h and 0-5 h following the administration of 4-GX and determining the amount of excreted xylose in both volumes of urine. • 4-GX test in blood which was orally administered to patients 3 g of this product (or 2.7 g in a 4-GX sample including 10 wt % water) to determine the concentration of plasma xylose in a blood sample 90 minutes after ingestion of the product. The concentration obtained was compared to a basal blood sample extracted before ingestion of 4-GX.
# The 4-GX was orally administered in a single dose dissolved in 100 ml of water.
# From here on, the optimum dose of 0.5 g of 4-GX (or 0.45 g in a 4-GX sample including 10 wt % water) was used in the 4-GX urine test for the diagnosis of intestinal lactase deficiency by the non-invasive method described in the present invention. This dose was dissolved in 100 ml water, and following the test protocol, 2 samples of urine excreted during the 5 hours following the administration of the drug were taken, in two interval groups: at 4 hours following administration of 4-GX and at 5 hours following administration of 4-GX.
# From the data obtained from the various urine tests for intestinal lactase deficiency following oral ingestion of 4-GX described in the present invention, a descriptive statistical analysis was performed of the amount of xylose excreted in the urine up to 4 hours and up to 5 hours following said administration. The same was done with the blodd test for intestinal lactase activity following oral ingestion of 4-GX, where descriptive statistical analysis was performed on the amount of xylose present in the plasma of subjects at 90 minutes following administration of 4-GX. The net increase in the plasma xylose concentration compared to basal values was also calculated.
# To obtain the statistical parameters of lactase determination using the various 4-GX tests described in the present invention and later to compare them with the results obtained from the intestinal biopsy test, hydrogen in exhaled air test and capillary-blood glucose test, the normal limits of the measurement of the total amount of xylose excreted in 4-hour and 5-hour urine and the concentration of blood xylose after 90 minutes following ingestion of 4-GX described in Table 5 were used. The normal limits for the other tests were those used in common clinical practice for the diagnosis of lactose intolerance (Arola, H. (1994) Diagnosis of hypolactasia and lactose malabsorption. Scand. J. Gastroenterol. […] (Suppl), 26-35), which are:
# For the measurement of lactase by intestinal biopsy, the lower normal limit is established at 10 units/g protein, with values less than this being considered positive.
# [3] = 0.5 g 4-GX, 0-5 h urine, cut-off 37.87 mg, 205 patients
# [4] = 0.5 g 4-GX, 5-hour urine, lactase in intestinal biopsy as gold standard
# [5] = 5-hour urine, after correcting biopsy diagnosis
# [6] = 5-hour urine, after correction of the biopsy diagnostic result (five discrepancies)
# [7] = 5-hour urine, after correction of the biopsy diagnostic result (four discrepancies)
# [8] = 5-hour urine, biopsy as gold standard
# [9] = 5-hour urine, final criteria of Table 9
# T1 sequence (P09848 869-1927): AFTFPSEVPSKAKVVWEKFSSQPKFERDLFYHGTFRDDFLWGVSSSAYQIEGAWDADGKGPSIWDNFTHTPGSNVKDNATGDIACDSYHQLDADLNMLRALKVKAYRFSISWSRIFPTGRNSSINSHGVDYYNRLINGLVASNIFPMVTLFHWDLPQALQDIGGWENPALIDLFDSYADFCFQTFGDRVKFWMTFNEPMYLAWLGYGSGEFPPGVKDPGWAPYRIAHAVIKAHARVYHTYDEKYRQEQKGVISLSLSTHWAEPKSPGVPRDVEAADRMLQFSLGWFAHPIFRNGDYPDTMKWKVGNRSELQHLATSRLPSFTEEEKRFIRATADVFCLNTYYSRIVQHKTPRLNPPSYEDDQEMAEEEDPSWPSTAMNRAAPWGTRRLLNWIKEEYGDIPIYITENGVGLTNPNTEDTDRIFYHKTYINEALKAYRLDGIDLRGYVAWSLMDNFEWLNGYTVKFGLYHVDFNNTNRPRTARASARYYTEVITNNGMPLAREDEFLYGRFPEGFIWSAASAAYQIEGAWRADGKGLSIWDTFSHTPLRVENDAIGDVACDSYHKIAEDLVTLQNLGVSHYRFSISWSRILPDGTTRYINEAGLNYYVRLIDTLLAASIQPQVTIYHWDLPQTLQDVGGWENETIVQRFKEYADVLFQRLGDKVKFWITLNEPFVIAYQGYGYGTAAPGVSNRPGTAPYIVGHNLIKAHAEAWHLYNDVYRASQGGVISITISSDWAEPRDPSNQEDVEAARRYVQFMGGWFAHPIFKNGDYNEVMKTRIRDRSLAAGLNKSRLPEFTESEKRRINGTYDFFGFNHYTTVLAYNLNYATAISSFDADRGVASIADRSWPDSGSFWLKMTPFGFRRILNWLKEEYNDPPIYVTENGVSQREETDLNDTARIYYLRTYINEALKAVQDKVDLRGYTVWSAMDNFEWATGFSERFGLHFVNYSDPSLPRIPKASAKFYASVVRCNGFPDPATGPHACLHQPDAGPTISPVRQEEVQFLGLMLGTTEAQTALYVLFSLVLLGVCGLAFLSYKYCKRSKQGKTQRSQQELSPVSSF
smiles,measurement,setting,value
"O=C[C@H](O)[C@@H](O)[C@@H](CO)O[C@@H]1O[C@H](CO)[C@H](O)[C@H](O)[C@H]1O [4-GX, 4-O-β-galactopyranosyl-D-xylose]",lowest dose of 4-GX for which excretion of xylose in urine can be distinguished from placebo,[1],0.5 g
same,No. Negative,[2]; [3],96
same,No. Positive (patients presenting intestinal lactase deficiency),[2]; [3],109
same,Percentage of patients negative,[2]; [3],47%
same,Percentage of patients positive,[2]; [3],53.2% and 53%
same,Negative predictive value,[2]; [4],92.7% and 92.71%
same,Positive predictive value,[2]; [4],92.7% and 92.66%
same,Sensitivity,[2]; [4],93.5% and 93.52%
same,Specificity,[2]; [4],91.8% and 91.75%
same,sensitivity calculated using the ROC curves,[2]; 5-hour urine samples,93.5%
same,specificity calculated using the ROC curves,[2]; 5-hour urine samples,91.8%
same,"range of recalculated sensitivity, specificity, positive and negative predictive values","[2]; 5-hour urine test, after correcting biopsy diagnosis",96.94-99.07
same,false negatives,[2]; [5],0.93%
same,negative likelihood ratio,[2]; [5],0.010
same,positive likelihood ratio,[2]; [5],32.361
same,Negative predictive value,[2]; [6],98.96%
same,Positive predictive value,[2]; [6],97.25%
same,Sensitivity,[2]; [6],99.07%
same,Specificity,[2]; [6],96.94%
same,Negative predictive value,[2]; [7],100.00%
same,Positive predictive value,[2]; [7],98.17%
same,Sensitivity,[2]; [7],100.00%
same,Specificity,[2]; [7],97.96%
same,area under the ROC curve,[2]; [8],0.9315
same,false negatives,[2]; [8],6.5%
same,false positives,[2]; [8],8.2%
same,"concordant positive results, percentage",[2]; [9],99.1%
same,final number of concordant positive results,[2]; [9],106
same,"negative results (concordant), percentage",[2]; [9],96.9%
same,number of negative results (concordant),[2]; [9],95
